In patent publication US20050282745A1, “Non-mammalian GnRH analogs and uses thereof in regulation of fertility and pregnancy” (priority 2001, published 2005):
Non-standard residues stand in square brackets, D forms with d. Residues, ends and D or L forms follow the SMILES beside them. pGlu = O=C1CC[C@@H](C(=O)O)N1; azaGly = NNC(=O)O

What was measured:
[1] = test system: human granulosa cells receptor; assay: Human granulosa cell receptor binding
From the text: Due to the limited number of cells it was not possible to precisely define the affinity of this receptor.

[2] = test system: chorionic peptidase-1 (C-ase-1)
Description: Using the incubation system developed for the C-ase-1 activity, the degradation of each analog was tested. […] These studies were done using the C-ase-1 enzyme activity assay as described previously. […] The product formed was calculated by subtraction, and its inverse plotted against the inverse of the original substrate concentrations to determine the nature of the competition. The Ki was to be determined by plotting the inverse of the product that formed verses the inhibitor used.
The concentration of the product of the degraded GnRH was quantified by subtracting the remaining mammalian GnRH from the starting concentrations of mammalian GnRH. […] The Ks for the degradation of mammalian GnRH was calculated from the x axis intercept using Lineweaver-Burke double reciprocal plot of the concentration of the product formed versus the concentration of the substrate used.
The reaction was stopped by heating at 85° C. for 10 minutes. The remaining GnRH was determined using a specific radioimmunoassay. The formation of product, i.e., the N-terminal nonapeptide of GnRH, was calculated by subtraction and its inverse was plotted versus the inverse of the initial substrate to determine the Ks of the reaction. […] The relative potency of each analog was compared.
Using the incubation system developed for the C-ase-1 activity, the degradation of each analog was studied. […] The inverse of the product was plotted against the inverse of the original substrate concentrations to determine Ks of the competition. The Ki was determined by plotting the inverse of the product formed verses the inhibitor used.

[3] = test system: human placental GnRH receptor; assay: Placental GnRH receptor binding, radiolabeled D-Arg(6)-chicken II GnRH-aza-Gly(10)-amide label
Description: (§1) The newly synthesized non-mammalian GnRH analogs and other commercially available mammalian GnRH analogs were used in placental receptors binding and enzyme stability study described here. On the basis of these studies, the most receptor potent and enzyme-stable analogs were chosen for further biopotency studies. GnRH receptors were purified from the membrane fractions from placentas. The purification procedure for the placental GnRH receptor was performed using a modification of the method described by Bramley et al., which reference is specifically incorporated herein by reference for the purpose. Addition of enzyme inhibitors for the endogenous C-ase-1 were used as well as agents for receptor stabilization. Initially, receptor-binding assays using ^125I-Buserelin as label were performed. The competitive binding of each of the analogs was studied over a dose range of 10^−11 to 10^−6 M. Incubation was at room temperature and receptor bound label was precipitated with polyethylene glycol. Specific and non-specific binding was determined. The data was subjected to Scatchard analysis. The non-mammalian GnRH analogs' ability to bind to the placental GnRH receptor was compared to that for synthetic mammalian GnRH (SEQ ID NO: 5), Buserelin (SEQ ID NO: 10) and other mammalian analogs. […] This way, the receptor affinity for that analog could be precisely determined. Receptors from three different term placentas were used to study each of these analogs. […] Bramley T A, McPhie C A, Menzies G S 1994 Human placental gonadotropin-releasing hormone (GnRH) binding sites: 111. Changes in GnRH binding levels with stage of gestation. Placenta 15:733-745.
(§2) In these and additional studies, placental GnRH receptors were purified from human term placentas after homogenization in 40 mM Tris (pH 7.4) and filtered through cheesecloth, followed by an initial centrifugation at 1,000×g for 10 minutes. The resulting supernatant was, again, centrifuged at 35,000×g for 30 minutes and the membrane pellet was collected and resuspended in Tris buffer with 0.3 M sucrose. The protein concentration was determined. Membranes were stored frozen at −20 C until use. Before use, placental membranes were diluted to 5,000 μg/mL with Tris buffer containing 0.5% BSA and 50 U/mL bacitracin. Placental membranes (100 μL) were used with varying concentrations of mammalian GnRH (SEQ ID NO: 5), Buserelin (SEQ ID NO: 10), chicken II GnRH (SEQ ID NO: 6), D-Arg (6)-chicken II GnRH-des-Gly (10)-ethylamide (SEQ ID NO: 2), or D-Arg (6)-chicken II GnRH-aza-Gly (10)-amide (SEQ ID NO: 2) (100 μL) and either radiolabeled Buserelin (SEQ ID NO: 10) or radiolabeled D-Arg (6)-chicken II GnRH-aza-Gly (10)-amide (SEQ ID NO: 2) (100 μL/tube and iodinated). Following incubation at room temperature for 4 hours, the bound and free hormones were separated using polyethylene glycol precipitation, followed by centrifugation. The binding affinity for each GnRH isoform or analog was calculated using the double reciprocal plot of bound versus free ligand. Each study was done using three different human term placental tissues.

[4] = test system: human sperm; assay: Human sperm motility in vitro; format: cell-based
Description: Normal human sperm ([…]) were obtained with seminal plasma and the motility of the sperm was assessed microscopically. Both the fraction of motile sperm and the forward sperm motion were assessed. These parameters were measured just prior to a 1:5 dilution with phosphate buffered saline containing 0 to 200 nM chicken II GnRH analog (SEQ ID NO: 2). The motility and motion of the sperm were assessed at 2, 30, 60, 90, 120 and 180 minutes after incubation at 37 C. […] By 180 minutes the motility of the control had fallen to that of all the treated sperm.

[5] = test system: human placental GnRH receptor; assay: Placental GnRH receptor binding, 125I-Buserelin label; conditions: Buserelin label
Description: as §1, with “On the basis of these studies, the most receptor potent and enzyme-stable analogs were chosen for further biopotency studies.” left out, “Changes in GnRH binding levels with stage of gestation.” left out
as §2, with “Placental membranes (100 μL) were used with varying concentrations of mammalian GnRH (SEQ ID NO: 5), Buserelin (SEQ ID NO: 10), chicken II GnRH (SEQ ID NO: 6), D-Arg (6)-chicken II GnRH-des-Gly (10)-ethylamide (SEQ ID NO: 2), or D-Arg (6)-chicken II GnRH-aza-Gly (10)-amide (SEQ ID NO: 2) (100 μL) and either radiolabeled Buserelin (SEQ ID NO: 10) or radiolabeled D-Arg (6)-chicken II GnRH-aza-Gly (10)-amide (SEQ ID NO: 2) (100 μL/tube and iodinated).” left out
Receptor assays were performed by incubating human term placental GnRH receptors with varying concentrations of GnRH or its analogs in the presence of ^125I-Buserelin. The reaction was stopped and the bound hormone precipitated with polyethylene glycol.

N=C(N)NCCC[C@@H](NC(=O)[C@H](Cc1c[nH]cn1)NC(=O)[C@H](CO)NC(=O)[C@H](Cc1c[nH]c2ccccc12)NC(=O)[C@H](Cc1c[nH]cn1)NC(=O)[C@@H]1CCC(=O)N1)C(=O)N[C@@H](Cc1c[nH]c2ccccc12)C(=O)N[C@@H](Cc1ccc(O)cc1)C(=O)N1CCC[C@H]1C(=O)NNC(N)=O [D-Arg(6)-chicken II GnRH-aza-Gly(10)-amide] ([pGlu]HWSH[dR]WYP[azaGly]-NH2)
receptor binding [1]: receptor binding for the GnRH analog was observed | degradation by / competition for C-ase-1, in words [2]: essentially not degraded | binding affinity compared with mammalian GnRH ([3]; analog label): 25 fold | Kd ([3]; placenta 2 membrane preparation, read-out: affinity constant (Ks)): 68 nM | Kd ([3]; three placental membrane preparations, read-out: average binding affinity): 93 ± 23 nM | enhancement of affinity when the analog is used as label ([3]; versus Buserelin label): 2 fold | forward motion of remaining motile sperm [4]: maintained a high grade | time until inhibition of motility ([4]; 2 nM): 30 min | sperm motility ([4]; 20 to 200 nM): initially inhibited | receptor binding potency compared with chicken II GnRH isoform or Buserelin ([5]; Example II): 2 fold | receptor binding potency compared with mammalian GnRH ([5]; Example II): 60 fold | Kd ([5]; term placental membranes, read-out: dissociation constant (Kd)): 175 ± 59 nM
